US12697313B2, “Methods of treating anemia using formoterol or a pharmaceutically acceptable salt thereof” (Dana-Farber Cancer Institute, Inc., priority 2022, dated 2026)
“Also recorded” adds a separate entry of the source.

Assays:
[1] = test system: cisplatin-treated CKD mice; test: FF i.p. in cisplatin-driven chronic kidney disease (CKD) mice; type: in vivo
Protocol: Comparisons are shown in between cisplatin+FF treated mice as compared to cisplatin+ vehicle treated mice.
FF treatment at a low dose of 0.3 mg/kg 3× weekly (i.p.) alleviates RBC parameters, such as % changes in (FIG. 78A) hematocrit% (HCT%) (FIG. 78B) hemoglobin (Hb) and (FIG. 78C) RBCs in mice with cisplatin-driven CKD. * p<0.05, 2-way ANOVA. n=4-5 mice per group. Comparisons are shown in between cisplatin+FF treated mice as compared to cisplatin+ vehicle treated mice.

[2] = test system: ovariectomized rat models; conditions: ovariectomized rat models (Kellenberger et al. 1998); cited from earlier work
[3] = test system: phenylhydrazine (PHZ)-mediated stress-induced anemic mice; test: Sublethal PHZ (50 mg/kg)-induced hemolytic anemia, female mice, FF i.p.; type: in vivo
wild-type C57BL/6J mice = test: FF daily i.p. in wild-type mice at steady-state (pilot study); type: in vivo
Protocol: The murine β2-adrenoreceptor has 87.08% similarity to the protein composition of the human analog. This encouraged further testing to determine whether formoterol fumarate (FF) treatment in wild-type mice under steady state or hemolytic anemia produces any alleviating effect in vivo. To address this, varying doses of FF 0.1-0.3-0.5-1.0 mg/kg or vehicle (0.3% DMSO in saline) were administered via intraperitoneal (i.p.) injection in 10-12 week old wild-type C57BL/6J mice daily for 3 weeks along with weekly submandibular cheek bleeding to analyze complete blood counts (CBC).
C57BL/6J mice were obtained from Jackson laboratories and were housed for at least 2 weeks at the Dana-Farber Cancer Institute (DFCI) animal resources facility before beginning experiments. All drug treatments have been mentioned in detail in the text.

[4] = test system: NUP98-HOXD13 transgenic mice; test: FF i.p. in MDS/AML mice (NUP98-HOXD13 transgenic); type: in vivo; conditions: 0.3 mg/kg thrice weekly i.p.
Protocol: FIG. 71A, FIG. 71B and FIG. 71C show FF treatment at a low dose of 0.3 mg/kg thrice weekly (i.p.) alleviates RBC parameters in PB of MDS/AML mice, such as RBCs, hemoglobin (Hb) and hematocrit (HCT%). * p<0.05, ** p <0.01, **** p<0.0001, ANOVA. n=5-7 mice per group. Veh: vehicle; LC: littermate control.

ADRB2-deficient HSPCs = test: Erythroid differentiation in ADRB2-deficient HSPCs (specificity for β2-adrenoreceptors); type: cell-based, human; conditions: ADRB2 knocked down HSPCs; FIG. 6E-6F
Source text: (§1) Next, to validate the specificity of FF for β2-adrenoreceptors, ADRB2 was knocked down in primary human HSPCs and treated with FF.
(§2) Primary human HSPCs were genome-edited, as previously described (Ghosh, S., Raundhal, M., Myers, S. A., Carr, S. A., Chen, X., Petsko, G. A., and Glimcher, L. H. (2022). Identification of RIOK2 as a master regulator of human blood cell development. Nat Immunol 23, 109-121).

[5] = test system: PHZ-induced lethal hemolytic anemia mice; test: PHZ-mediated lethal hemolytic anemia, FF i.p.; type: in vivo; conditions: for body weights: 0.1/0.3 mg/kg
Protocol: To this end, 10-12 week old male C57BL/6J mice were first treated with a single lethal dose of 150 mg/kg PHZ followed by daily i.p. injections of either vehicle or 0.1/0.3 mg/kg FF. […] All control mice (n=5) were moribund and died by 3 days of lethal PHZ dose, whereas 3-4 mice in 0.1/0.3 mg/kg FF treatment groups are still surviving post 2 weeks of lethal dose (FIG. 42A). […] FF injections were stopped after 7 days of lethal PHZ treatment and it was observed that the body weights of mice were held steady (FIG. 42B). The body weights and survival of these mice are being monitored daily. This unexpected finding prompted us to repeat this lethal hemolytic anemia model in the female mice. […] The FF treatment lasted for 7 days after lethal PHZ dose and the body weights and survival of these mice are being monitored daily.

RPS14 KD HSPCs = test: Erythroid differentiation in RPS14 knockdown HSPCs; type: cell-based, human; conditions: RPS14 KD HSPCs vs DMSO; FIG. 6D, FIG. 46
Source text: Since RIOK2-deficient primary human HSPCs effectively model impaired erythropoiesis leading to anemia (Ghosh et la. (2022) Nat Immunol 23: 109-121), it was next investigated whether treatment with formoterol fumarate (FF) alleviates anemia in this in vitro model. To address this, RIOK2-proficient and deficient primary human HSPCs via CRISPR-Cas9 based genome-editing were generated (FIG. 6A), as previously described (Ghosh et al. (2022) Nat Immunol 23: 109-121). […] Since RPS14 deletion is reported to be MDS-genic (Ebert et al. (2008) Nature 451: 335-339; Schneider et al. (2016) Nat Med 22: 288-297), RPS14 was similarly knocked down in primary human HSPCs (FIG. 6C).
as §1, §2

[6] = female, PHZ 120 mg/kg, FF 0.1 mg/kg, n=5
[7] = female, PHZ 120 mg/kg, FF 0.3 mg/kg, n=5
[8] = male, PHZ 150 mg/kg, FF 0.1 mg/kg, n=5
[9] = male, PHZ 150 mg/kg, FF 0.3 mg/kg, n=5

## COc1ccc(C[C@@H](C)NC[C@H](O)c2ccc(O)c(NC=O)c2)cc1.O=C(O)/C=C/C(=O)O [FF, (E)-but-2-enedioic acid;N-[2-hydroxy-5-[(1R)-1-hydroxy-2-[[(2R)-1-(4-methoxyphenyl)propan-2-yl]amino]ethyl]phenyl]formamide]
[1]; 0.3 mg/kg 3× weekly i.p., FIG. 78
  % changes in RBC parameters (HCT%, Hb, RBCs): rescues anemia
[1]; 0.3 mg/kg 3× weekly i.p., FIG. 79
  absolute values of RBC parameters (Hb, HCT %, RBCs): elevates RBC parameters
[1]; 0.3 mg/kg 3× weekly i.p., FIG. 81A
  terminal erythroid progenitors in the BM: elevates erythroid progenitors
[1]; FIG. 77
  serum BUN and creatinine levels: does not affect serum BUN and creatinine levels
[1]; FIG. 80
  WBCs and platelets: does not affect WBC parameters
[1]; i.p., vs cisplatin+vehicle, FIG. 76
  body weights: significantly rescues (elevates) body weights
[2]
  effects on bone: anabolic effects on bone
[3]; 0.1/0.3 mg/kg daily i.p., female, FIG. 18A
  body weights (absolute and % change): sufficient to revive body weights; also recorded: increases absolute body weights and % change in body weights
[3]; 0.1/0.3 mg/kg, FIG. 18B
  HCT % and RBC counts: produced long-term benefits in elevating HCT % and RBC counts
  Hb production: significantly enhanced Hb production
  RBC parameters (Hb, HCT %, RBC numbers) in peripheral blood: enhances and sustains RBC parameters
[3]; FIG. 18C
  platelet counts: not statistically significant
[3]; day 4 and over 14 days, FIG. 18C
  WBC and monocyte counts: provided an immediate boost to WBC and monocyte counts after PHZ administration, no long term benefits were observed; also recorded: increases WBC and monocyte counts in the peripheral blood after 4 days of daily i.p. injections but does not sustain the impact over 14 days
wild-type C57BL/6J mice; 0.3-0.5 and 1.0 mg/kg daily i.p., FIG. 14A
  body weights: mildly increased body weights of mice, but the values did not reach significance
wild-type C57BL/6J mice; 14 days of daily i.p., FIG. 14C-14E
  RBC parameters (RBC numbers, HCT %, Hb) in peripheral blood: slightly elevated; also recorded: mildly increases RBC parameters
wild-type C57BL/6J mice; 14 days of daily i.p., FIG. 14F-14G
  WBC and monocyte counts in peripheral blood: remained marginally affected; also recorded: does not affect white blood cell (WBC) or monocyte counts
wild-type C57BL/6J mice; all doses, day 14 of daily i.p., FIG. 14B
  mitochondrial biogenesis in PBMCs (MitoTracker staining): significantly enhanced mitochondrial biogenesis; also recorded: enhances mitochondrial biogenesis
wild-type C57BL/6J mice; daily i.p. 0.1-0.3-0.5-1.0 mg/kg
  tolerability (body weights, mobility, activeness, breathing patterns): well-tolerated
[4]; FIG. 71
  RBC parameters (RBCs, Hb, HCT%) in PB: elevates RBC parameters
[4]; FIG. 72A-72B
  platelets and WBCs in peripheral blood: has no impact
[4]; FIG. 72C
  apoptosis (Annexin V staining) in the bone marrow: has no impact
[4]; FIG. 73A
  erythroid progenitors in the BM: elevates erythroid progenitors
[4]; FIG. 73B-73C
  GMP and MkP in the BM: does not affect
ADRB2-deficient HSPCs
  erythroid differentiation: failed to induce erythropoiesis in ADRB2-deficient HSPCs; also recorded: inability of FF to induce erythroid differentiation
[5]; female mice, PHZ 120 mg/kg, FF 0.1/0.3 mg/kg, FIG. 42C
  survival (Kaplan-Meier): provided prominent survival benefits
[5]; female, PHZ 120 mg/kg, FIG. 42D
  body weights: similarly revived body weights; also recorded: steadily increases body weights of female mice
[5]; [6]
  mice died on day 2: 1 mouse
  mice still surviving post lethal PHZ dose: 4 mice
[5]; [7]
  mice died on day 2: 2 mice
  mice still surviving post lethal PHZ dose: 3 mice
[5]; male mice, PHZ 150 mg/kg, FF 0.1/0.3 mg/kg daily i.p., FIG. 42A
  survival (Kaplan-Meier): produced striking survival benefits
[5]; male, PHZ 150 mg/kg, 0.1/0.3 mg/kg FF groups, n=5
  mice still surviving post 2 weeks of lethal dose: 3-4 mice
[5]; male, PHZ 150 mg/kg, FIG. 42B
  body weights: produced remarkable revival in body weights; also recorded: steadily increases body weights of male mice
[5]; [8]
  mice died on day 2: 2 mice
  mice still surviving post lethal PHZ dose: 3 mice
[5]; [9]
  mice died on day 2: 1 mouse
  mice still surviving post lethal PHZ dose: 4 mice
RPS14 KD HSPCs
  erythroid differentiation (CD235a): significantly increased erythroid differentiation in RPS14 KD HSPCs; also recorded: increases erythroid differentiation (CD235a) in RPS14 KD HSPCs; also recorded: moderately rescues erythropoiesis
